Assay: Comparative analysis of solutions at 15 mg/ml in water at pH 7.4 (phosphate buffer)
Format: physicochemical

SMILES: Cc1c(C)c2c(c(C)c1OC(=O)CCC(=O)O)CC[C@@](C)(CCC[C@H](C)CCC[C@H](C)CCCC(C)C)O2 [α-tocopherol succinate]
- Appearance of solution: milky solution

From US7683024B2, “Polyaminoacids functionalized by alpha tocopherol and uses thereof, particular for therapeutic applications” (Flamel Technologies, priority 2002, dated 2010)
